From patent US6355799B1, “Substituted benzene compounds, process for their preparation, and herbicidal and defoliant compositions containing them” (ISK Americas Incorporated, priority 1997, dated 2002)

Legend:
Type in all cases: in vivo
[1] = tested on: redroot pigweed (Amaranthus retroflexus, AMARE); experiment: Pre-emerge test, greenhouse herbicide activity screening; conditions: pre-emerge, 14 days after application
In short: (§1)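 Compounds in acetone were track-sprayed at 187 l/ha, 15–1000 g ai/ha, onto sandy loam pots. Pre-emerge seeds were sown one day before spraying, with surface watering afterwards. Post-emerge plants were at the 2–3 leaf stage and sprayed with 0.25% v/v non-ionic surfactant. Injury was rated 0–100 at 14 days.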

[2] = tested on: barnyardgrass (Echinochloa crus-galli, ECHCG); experiment: as above; conditions: pre-emerge, 14 days after application
In short: as §1

[3] = tested on: green foxtail (Setaria viridis, SETVI); experiment: as above; conditions: pre-emerge, 14 days after application
In short: as §1

[4] = tested on: ivyleaf morningglory (Ipomoea hederacea, IPOHE); experiment: as above; conditions: pre-emerge, 14 days after application
In short: as §1

[5] = tested on: johnsongrass (Sorghum halepense, SORHA); experiment: as above; conditions: pre-emerge, 14 days after application
In short: as §1

[6] = tested on: lambsquarters (Chenopodium album, CHEAL); experiment: as above; conditions: pre-emerge, 14 days after application
In short: as §1

[7] = tested on: large crabgrass (Digitaria sanguinalis, DIGSA); experiment: as above; conditions: pre-emerge, 14 days after application
In short: as §1

[8] = tested on: sicklepod (Cassia obtusifolia, CASOB); experiment: as above; conditions: pre-emerge, 14 days after application
In short: as §1

[9] = tested on: velvetleaf (Abutilon theophrasti, ABUTH); experiment: as above; conditions: pre-emerge, 14 days after application
In short: as §1

[10] = tested on: field corn (Zea mays L., var. Dekalb 535, CORN); experiment: Pre-emerge test, crop safety; conditions: pre-emerge, 14 days after application; for phytotoxicity rating CORN (crop damage): scale 0-100; for phytotoxicity rating CORN: rating scale 0-100
In short: (§2)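 Sandy loam pots; pre-emerge: sown 1 d pre-spray, surface-watered after, then bottom-watered. Post-emerge: sown 8–21 d before, 2–3 leaf stage, + 0.25% v/v NIS, bottom-watered. Acetone, 187 l/ha track spray, 15–1000 g ai/ha. 0–100 injury score, day 14.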

[11] = tested on: upland rice (Oryza sp., var. Tebonnet, RICE); experiment: Pre-emerge test, crop safety; conditions: pre-emerge, 14 days after application; for phytotoxicity rating RICE (crop damage): scale 0-100; for phytotoxicity rating RICE: rating scale 0-100
In short: as §2

[12] = tested on: barnyardgrass (Echinochloa crus-galli, ECHCG); experiment: Post-emerge test, greenhouse herbicide activity screening; conditions: post-emerge, 14 days after application, rating scale 0-100
In short: as §1

[13] = tested on: green foxtail (Setaria viridis, SETVI); experiment: as above; conditions: post-emerge, 14 days after application, rating scale 0-100
In short: as §1

[14] = tested on: ivyleaf morningglory (Ipomoea hederacea, IPOHE); experiment: as above; conditions: post-emerge, 14 days after application, rating scale 0-100
In short: as §1

[15] = tested on: lambsquarters (Chenopodium album, CHEAL); experiment: as above; conditions: post-emerge, 14 days after application, rating scale 0-100
In short: as §1

[16] = tested on: large crabgrass (Digitaria sanguinalis, DIGSA); experiment: as above; conditions: post-emerge, 14 days after application, rating scale 0-100
In short: as §1

[17] = tested on: redroot pigweed (Amaranthus retroflexus, AMARE); experiment: as above; conditions: post-emerge, 14 days after application
In short: as §1

[18] = tested on: sicklepod (Cassia obtusifolia, CASOB); experiment: as above; conditions: post-emerge, 14 days after application, rating scale 0-100
In short: as §1

[19] = tested on: velvetleaf (Abutilon theophrasti, ABUTH); experiment: as above; conditions: post-emerge, 14 days after application, rating scale 0-100
In short: as §1

[20] = tested on: field corn (Zea mays L., var. Dekalb 535, CORN); experiment: Post-emerge test, crop safety; conditions: post-emerge, 14 days after application, rating scale 0-100
In short: as §1

[21] = tested on: upland rice (Oryza sp., var. Tebonnet, RICE); experiment: Post-emerge test, crop safety; conditions: post-emerge, 14 days after application, rating scale 0-100
In short: as §1

[22] = 250 g ai/ha, rating scale 0-100

Compound: COc1c(Cl)cc(F)c(-n2c(=O)cc(C(F)(F)F)n(C)c2=O)c1NC(=O)COc1ccc(F)cc1 [2-133]
- phytotoxicity rating AMARE ([1]; 63 g ai/ha, scale 0-100): 100
- phytotoxicity rating AMARE ([1]; 250 g ai/ha, scale 0-100): 100
- phytotoxicity rating ECHCG ([2]; 63 g ai/ha, scale 0-100): 65
- phytotoxicity rating ECHCG ([2]; 250 g ai/ha, scale 0-100): 95
- phytotoxicity rating SETVI ([3]; 63 g ai/ha, scale 0-100): 95
- phytotoxicity rating SETVI ([3]; 250 g ai/ha, scale 0-100): 100
- phytotoxicity rating IPOHE ([4]; 63 g ai/ha, scale 0-100): 80
- phytotoxicity rating IPOHE ([4]; 250 g ai/ha, scale 0-100): 100
- phytotoxicity rating SORHA ([5]; 63 g ai/ha, scale 0-100): 75
- phytotoxicity rating SORHA ([5]; 250 g ai/ha, scale 0-100): 100
- phytotoxicity rating CHEAL ([6]; 63 g ai/ha, scale 0-100): 100
- phytotoxicity rating CHEAL ([6]; 250 g ai/ha, scale 0-100): 100
- phytotoxicity rating DIGSA ([7]; 63 g ai/ha, scale 0-100): 95
- phytotoxicity rating DIGSA ([7]; 250 g ai/ha, scale 0-100): 100
- phytotoxicity rating CASOB ([8]; 63 g ai/ha, scale 0-100): 55
- phytotoxicity rating CASOB ([8]; 250 g ai/ha, scale 0-100): 100
- phytotoxicity rating ABUTH ([9]; 63 g ai/ha, scale 0-100): 100
- phytotoxicity rating ABUTH ([9]; 250 g ai/ha, scale 0-100): 100
- phytotoxicity rating CORN (crop damage) ([10]; 63 g ai/ha): 20
- phytotoxicity rating CORN (crop damage) ([10]; 250 g ai/ha): 80
- phytotoxicity rating RICE (crop damage) ([11]; 63 g ai/ha): 70
- phytotoxicity rating RICE (crop damage) ([11]; 250 g ai/ha): 93
- ECHCG phytotoxicity rating ([12]; 63 g ai/ha): 50
- ECHCG phytotoxicity rating ([12]; 250 g ai/ha): 85
- SETVI phytotoxicity rating ([13]; 63 g ai/ha): 70
- SETVI phytotoxicity rating ([13]; 250 g ai/ha): 75
- IPOHE phytotoxicity rating ([14]; 63 g ai/ha): 90
- IPOHE phytotoxicity rating ([14]; 250 g ai/ha): 100
- CHEAL phytotoxicity rating ([15]; 63 g ai/ha): 100
- CHEAL phytotoxicity rating ([15]; 250 g ai/ha): 100
- DIGSA phytotoxicity rating ([16]; 63 g ai/ha): 30
- DIGSA phytotoxicity rating ([16]; 250 g ai/ha): 70
- AMARE phytotoxicity rating ([17]; 63 g ai/ha, rating scale 0-100): 100
- AMARE phytotoxicity rating [17, 22]: 100
- CASOB phytotoxicity rating ([18]; 63 g ai/ha): 80
- CASOB phytotoxicity rating ([18]; 250 g ai/ha): 100
- ABUTH phytotoxicity rating ([19]; 63 g ai/ha): 100
- ABUTH phytotoxicity rating ([19]; 250 g ai/ha): 100
- CORN phytotoxicity rating (crop damage) ([20]; 63 g ai/ha): 70
- CORN phytotoxicity rating (crop damage) ([20]; 250 g ai/ha): 95
- RICE phytotoxicity rating (crop damage) ([21]; 63 g ai/ha): 80
- RICE phytotoxicity rating (crop damage) ([21]; 250 g ai/ha): 95

Compound: CCOC(=O)N(C)C(=O)NNc1c(OC)c(Cl)cc(F)c1-n1c(=O)cc(C(F)(F)F)n(C)c1=O [15-9]
- phytotoxicity rating AMARE ([1]; 63 g ai/ha, rating scale 0-100): 100
- phytotoxicity rating AMARE [1, 22]: 100
- phytotoxicity rating ECHCG ([2]; 63 g ai/ha, rating scale 0-100): 99
- phytotoxicity rating ECHCG [2, 22]: 100
- phytotoxicity rating SETVI ([3]; 63 g ai/ha, rating scale 0-100): 100
- phytotoxicity rating SETVI [3, 22]: 100
- phytotoxicity rating IPOHE ([4]; 63 g ai/ha, rating scale 0-100): 99
- phytotoxicity rating IPOHE [4, 22]: 100
- phytotoxicity rating SORHA ([5]; 63 g ai/ha, rating scale 0-100): 100
- phytotoxicity rating SORHA [5, 22]: 100
- phytotoxicity rating CHEAL ([6]; 63 g ai/ha, rating scale 0-100): 100
- phytotoxicity rating CHEAL [6, 22]: 100
- phytotoxicity rating DIGSA ([7]; 63 g ai/ha, rating scale 0-100): 90
- phytotoxicity rating DIGSA [7, 22]: 100
- phytotoxicity rating CASOB ([8]; 63 g ai/ha, rating scale 0-100): 90
- phytotoxicity rating CASOB [8, 22]: 100
- phytotoxicity rating ABUTH ([9]; 63 g ai/ha, rating scale 0-100): 100
- phytotoxicity rating ABUTH [9, 22]: 100
- phytotoxicity rating CORN ([10]; 63 g ai/ha): 85
- phytotoxicity rating CORN ([10]; 250 g ai/ha): 98
- phytotoxicity rating RICE ([11]; 63 g ai/ha): 95
- phytotoxicity rating RICE ([11]; 250 g ai/ha): 100
- Post-emerge Herbicidal Activity ECHCG (phytotoxicity rating) ([12]; 63 g ai/ha): 0
- Post-emerge Herbicidal Activity ECHCG (phytotoxicity rating) ([12]; 250 g ai/ha): 90
- Post-emerge Herbicidal Activity SETVI (phytotoxicity rating) ([13]; 63 g ai/ha): 0
- Post-emerge Herbicidal Activity SETVI (phytotoxicity rating) ([13]; 250 g ai/ha): 80
- Post-emerge Herbicidal Activity IPOHE (phytotoxicity rating) ([14]; 63 g ai/ha): 100
- Post-emerge Herbicidal Activity IPOHE (phytotoxicity rating) ([14]; 250 g ai/ha): 85
- Post-emerge Herbicidal Activity DIGSA (phytotoxicity rating) ([16]; 63 g ai/ha): 0
- Post-emerge Herbicidal Activity DIGSA (phytotoxicity rating) ([16]; 250 g ai/ha): 80
- Post-emerge Herbicidal Activity AMARE (phytotoxicity rating) ([17]; 63 g ai/ha, rating scale 0-100 (0 no damage, 100 complete death)): 10
- Post-emerge Herbicidal Activity AMARE (phytotoxicity rating) [17, 22]: 95
- Post-emerge Herbicidal Activity CASOB (phytotoxicity rating) ([18]; 63 g ai/ha): 10
- Post-emerge Herbicidal Activity CASOB (phytotoxicity rating) ([18]; 250 g ai/ha): 60
- Post-emerge Herbicidal Activity ABUTH (phytotoxicity rating) ([19]; 63 g ai/ha): 80
- Post-emerge Herbicidal Activity ABUTH (phytotoxicity rating) ([19]; 250 g ai/ha): 100
- Post-emerge Herbicidal Activity CORN (crop damage rating) ([20]; 63 g ai/ha): 30
- Post-emerge Herbicidal Activity CORN (crop damage rating) ([20]; 250 g ai/ha): 70
- Post-emerge Herbicidal Activity RICE (crop damage rating) ([21]; 63 g ai/ha): 50
- Post-emerge Herbicidal Activity RICE (crop damage rating) ([21]; 250 g ai/ha): 90
